Laboratory results as given in patent US20130022590A1, “Compositions Comprising Zinc Finger Domains and Uses Therefor” (priority 2009, published 2013).

Legend:
[1] = tested on: ssRNA oligonucleotide containing a single AGGUAA site (GCAACCAGGUAAAGUCU, SEQ ID NO: 28); experiment: Fluorescence anisotropy titration, single-site ssRNA; assay type: binding; conditions: GST fusions; ssRNA with 5′ fluorescein tag and a single AGGUAA site; 25° C.
Protocol: (§1) Fluorescence Anisotropy titrations e.g., as shown in FIGS. 1D-F, 8 and 35, were carried out using standard protocols. In brief, 5′-Fluorescein-labeled RNA oligonucleotides were quantified by A260, correcting for fluorescein absorbance by using A493. For single-site experiments, the sequence GCAACCAGGUAAAGUCU (SEQ ID NO: 28), or single base mutants thereof, was used. For double-site experiments, two AGGUAA sites were separated by different length sequences as indicated, and the total oligonucleotide lengths were kept constant by the symmetrical addition of adenines to each end. […] Protein was titrated into this starting solution and anisotropy values measured on a Cary Eclipse fluorescence spectrophotometer fitted with manual polarizer and long-pass filters set to 475 and 515 nm for excitation and emission, respectively. […] Association constants were determined by nonlinear least squares regression analysis using a 1:1 binding model.
Constructs of the two individual domains, F1 (FIG. 2, residues 1-45) and F2 (FIG. 2, residues 65-95), were cloned expressed and purified as GST fusions described in section 1.2 above, and tested their ability to bind ssRNA by fluorescence anisotropy as described in section 1.5 above, using a ssRNA oligonucleotide bearing a 5′ fluorescein tag and containing a single AGGUAA site.

[2] = tested on: AGAUAA ssRNA; experiment: Fluorescence anisotropy binding assay, AGAUAA substrate; conditions: FIG. 19 and FIG. 20
Protocol: as §1
To determine whether changing arginine-82 (R82) would affect the binding preference of ZRANB2-F2 from GGU to GAU, the point mutation R82Q in ZNF 2 of ZRANB2 was made and the ability of both the wild type (W) protein and the R82Q mutant to bind to AGGUAA and AGAUAA was assessed by fluorescence anisotropy binding assays as described previously in Example 1.

[3] = tested on: short (6 or 10 nt) RNA oligonucleotides containing a single AGGUAA motif; experiment: NMR chemical-shift perturbation (15N-HSQC) RNA titration; assay type: binding; conditions: 15N-labeled F2
Protocol: In brief, F2 and F12 were dialysed into 25 mM potassium phosphate (pH 7.0), 25 mM NaCl, and 0.5 mM DTT and concentrated to 0.4-1 mM. All spectra were recorded on a Bruker Avance 600 spectrometer equipped with a cryoprobe. 1H, 15N, and 13C assignments were obtained from HNCACB, CB-CA(CO)NH, HCCH-TOCSY, NOESY, and TOCSY spectra acquired at 2° C., 5° C., or 25° C. Dihedral angle restraints were obtained by analysis of an HNHA spectrum as previously described in Vuister G. W. and Bax A. 1993 J Am Chem Soc 115: 7772-7777. NMR data were processed by using XWINNMR/Topspin (Bruker) and analyzed with SPARKY (T. D. Goddard and D. G. Kneller, University of California, San Francisco). The structure of F2 was calculated from NOE and Ø angle constraints (e.g., FIGS. 5 and 9C) by using a protocol as described in Plambeck C. A., et al., 2003 J Biol Chem 278: 22805-22811.
For RNA titrations, deprotected RNA oligonucleotides i.e., having the sequence AGGUAA, CCAGGUAAAG (SEQ ID NO: 25), or AGGUAAAGGUAA (SEQ ID NO: 26) and the appropriate protein were dialyzed into 10 mM Mops (pH 7.2) and 0.5 mM DTT. Protein and RNA concentrations were calculated from A280 and A260, respectively. Final concentrations of complexes after titrations were typically approximately 0.1-0.5 mM. Assignments of the F2:RNA complex (1:1 or 1:1.2 molar ratio) were made at 25° C. as described above. […]

Substance	association constant [1]	binding affinity to guanine base relative to adenine base at position 3 (AGGUAA vs AGAUAA) [2]	complex formed on RNA titration [3]
F1: F1 zinc finger domain (residues 1-45 of human ZRANB2) (MSTKNFRVSDGDWICPDKKCGNVNFARRTSCNRCGREKTTEAKMM; F1 zinc finger domain GST fusion in some uses; UniProt O95218 1-45, looked up, fragment)	3e+06 M⁻¹		
F2: F2 zinc finger domain (residues 65-95 of human ZRANB2), wild type (SANDWQCKTCSNVNWARRSECNMCNTPKYAK; F2 zinc finger domain GST fusion in some uses; UniProt O95218 65-95, looked up, fragment)	1e+06 M⁻¹	about 4 fold	well-defined 1:1 complex
